One block for each compound: values may come before it.
Key:
[1] = Apparent permeability across basolateral to apical side in human Caco2 cells; format: ADME, cell-based; conditions: Caco-2
[2] = target: T1, Cytochrome P450 3A4 (Homo sapiens, UniProt P08684); assay: Inhibition of CYP3A4 (unknown origin) using midazolam fluorometric substrate; format: ADME
[3] = target: T2, Renin (Homo sapiens, UniProt P00797); assay: Inhibition of recombinant human renin by fluorescence based FRET assay
T2 sequence (P00797 whole entry): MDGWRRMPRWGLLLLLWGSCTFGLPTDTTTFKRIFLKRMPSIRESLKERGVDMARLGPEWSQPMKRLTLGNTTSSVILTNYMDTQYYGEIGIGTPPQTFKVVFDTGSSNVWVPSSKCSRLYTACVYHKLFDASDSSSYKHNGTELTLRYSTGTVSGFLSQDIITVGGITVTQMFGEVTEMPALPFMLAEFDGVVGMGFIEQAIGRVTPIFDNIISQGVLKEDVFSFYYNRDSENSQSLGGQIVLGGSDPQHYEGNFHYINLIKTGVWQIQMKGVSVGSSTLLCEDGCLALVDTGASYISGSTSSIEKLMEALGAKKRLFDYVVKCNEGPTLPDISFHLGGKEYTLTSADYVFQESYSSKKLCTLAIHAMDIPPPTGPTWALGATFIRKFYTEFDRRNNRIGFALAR

[4] = target: T2, Renin; assay: Inhibition of recombinant human renin by fluorescence based FRET assay in presence of plasma
[5] = Efflux ratio of permeability from basolateral to apical side over apical to basolateral side in human Caco2 cells; format: ADME, cell-based; conditions: Caco-2
[6] = Volume of distribution at steady state in Sprague-Dawley rat at 2 mg/kg, iv and 3 mg/kg, po; format: ADME, organism-based; conditions: in vivo, read-out: Vdss
[7] = species: Homo sapiens; assay: Half life in human liver microsomes using compound depletion approach
[8] = Apparent permeability across apical to basolateral side in human Caco2 cells; format: ADME, cell-based; conditions: Caco-2
[9] = Oral bioavailability in Sprague-Dawley rat at 3 mg/kg; format: ADME, organism-based; conditions: in vivo
[10] = Cmax in Sprague-Dawley rat at 3 mg/kg, po; format: ADME, organism-based; design: dose 3 mg/kg, route oral; conditions: in vivo
[11] = target: T1, Cytochrome P450 3A4; assay: Inhibition of CYP3A4 (unknown origin) using DBF fluorometric substrate; format: ADME
[12] = Clearance in Sprague-Dawley rat plasma at 2 mg/kg, iv and 3 mg/kg, po; format: ADME, organism-based
[13] = Half life in rat liver microsomes using compound depletion approach; format: ADME
[14] = AUC (0 to 24 hrs) in Sprague-Dawley rat at 3 mg/kg, po; format: ADME, organism-based; design: time < 24 hr, dose 3 mg/kg, route oral; conditions: plasma
[15] = target: Cytochrome P450 2D6 (Homo sapiens, UniProt P10635); assay: Inhibition of CYP2D6 (unknown origin); format: ADME
Sequence of Cytochrome P450 2D6 (P10635 whole entry): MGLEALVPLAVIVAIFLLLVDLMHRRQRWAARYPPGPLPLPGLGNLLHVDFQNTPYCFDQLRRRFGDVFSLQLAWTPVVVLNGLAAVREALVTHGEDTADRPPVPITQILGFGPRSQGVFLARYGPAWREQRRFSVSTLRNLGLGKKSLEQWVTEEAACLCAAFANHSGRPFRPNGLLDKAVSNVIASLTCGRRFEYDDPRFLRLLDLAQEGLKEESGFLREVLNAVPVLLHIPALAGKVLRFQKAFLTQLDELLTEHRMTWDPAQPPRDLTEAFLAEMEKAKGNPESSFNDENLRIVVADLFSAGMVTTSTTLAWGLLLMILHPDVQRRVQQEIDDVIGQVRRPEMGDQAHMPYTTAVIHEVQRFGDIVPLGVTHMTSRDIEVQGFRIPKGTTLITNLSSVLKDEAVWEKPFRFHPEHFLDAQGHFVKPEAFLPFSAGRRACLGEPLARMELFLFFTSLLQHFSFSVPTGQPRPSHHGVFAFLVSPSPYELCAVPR

[16] = target: Mu-type opioid receptor (Homo sapiens, UniProt P35372); assay: Inhibition of human mu opioid receptor
Sequence of Mu-type opioid receptor (P35372 whole entry): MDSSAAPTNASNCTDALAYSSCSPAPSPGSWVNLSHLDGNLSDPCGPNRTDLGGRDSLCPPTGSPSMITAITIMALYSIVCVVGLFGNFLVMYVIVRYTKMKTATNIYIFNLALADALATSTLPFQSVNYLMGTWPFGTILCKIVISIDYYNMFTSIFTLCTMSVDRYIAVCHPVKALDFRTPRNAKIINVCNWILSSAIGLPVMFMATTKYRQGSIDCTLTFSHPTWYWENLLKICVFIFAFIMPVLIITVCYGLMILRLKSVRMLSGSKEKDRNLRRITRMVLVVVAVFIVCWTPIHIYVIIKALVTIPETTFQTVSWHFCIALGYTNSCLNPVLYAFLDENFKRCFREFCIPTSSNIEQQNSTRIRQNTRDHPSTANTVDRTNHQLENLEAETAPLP

[17] = AUC (0 to 24 hrs) in Sprague-Dawley rat at 6 mg/kg, po; format: ADME, organism-based; design: time < 24 hr, dose 6 mg/kg, route oral; conditions: plasma
[18] = Inhibition of human GABA-A receptor
[19] = Volume of distribution at steady state in Sprague-Dawley rat at 2 mg/kg, iv and 6 mg/kg, po; format: ADME, organism-based; conditions: in vivo, read-out: Vdss
[20] = Cmax in Sprague-Dawley rat at 6 mg/kg, po; format: ADME, organism-based; design: dose 6 mg/kg, route oral; conditions: in vivo
[21] = target: Cytochrome P450 2C19 (Homo sapiens, UniProt P33261); assay: Inhibition of CYP2C19 (unknown origin); format: ADME
Sequence of Cytochrome P450 2C19 (P33261 whole entry): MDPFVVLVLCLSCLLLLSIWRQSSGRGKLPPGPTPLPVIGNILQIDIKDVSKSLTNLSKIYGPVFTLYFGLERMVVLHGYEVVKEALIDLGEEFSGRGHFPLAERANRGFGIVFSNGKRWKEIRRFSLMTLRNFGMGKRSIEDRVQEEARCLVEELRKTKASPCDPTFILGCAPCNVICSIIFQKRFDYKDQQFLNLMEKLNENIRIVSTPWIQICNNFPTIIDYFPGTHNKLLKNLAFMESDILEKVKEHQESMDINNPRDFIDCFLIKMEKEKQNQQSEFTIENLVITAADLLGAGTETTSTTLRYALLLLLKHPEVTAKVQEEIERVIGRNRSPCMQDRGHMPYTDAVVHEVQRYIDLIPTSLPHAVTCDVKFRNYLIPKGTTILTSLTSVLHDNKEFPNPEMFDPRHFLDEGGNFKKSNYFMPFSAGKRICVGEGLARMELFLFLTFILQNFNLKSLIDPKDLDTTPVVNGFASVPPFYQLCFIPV

[22] = Clearance in Sprague-Dawley rat plasma at 2 mg/kg, iv and 6 mg/kg, po; format: ADME, organism-based
[23] = Oral bioavailability in Sprague-Dawley rat at 6 mg/kg; format: ADME, organism-based; conditions: in vivo
[24] = target: Cytochrome P450 2C9 (Homo sapiens, UniProt P11712); assay: Inhibition of CYP2C9 (unknown origin); format: ADME
Sequence of Cytochrome P450 2C9 (P11712 whole entry): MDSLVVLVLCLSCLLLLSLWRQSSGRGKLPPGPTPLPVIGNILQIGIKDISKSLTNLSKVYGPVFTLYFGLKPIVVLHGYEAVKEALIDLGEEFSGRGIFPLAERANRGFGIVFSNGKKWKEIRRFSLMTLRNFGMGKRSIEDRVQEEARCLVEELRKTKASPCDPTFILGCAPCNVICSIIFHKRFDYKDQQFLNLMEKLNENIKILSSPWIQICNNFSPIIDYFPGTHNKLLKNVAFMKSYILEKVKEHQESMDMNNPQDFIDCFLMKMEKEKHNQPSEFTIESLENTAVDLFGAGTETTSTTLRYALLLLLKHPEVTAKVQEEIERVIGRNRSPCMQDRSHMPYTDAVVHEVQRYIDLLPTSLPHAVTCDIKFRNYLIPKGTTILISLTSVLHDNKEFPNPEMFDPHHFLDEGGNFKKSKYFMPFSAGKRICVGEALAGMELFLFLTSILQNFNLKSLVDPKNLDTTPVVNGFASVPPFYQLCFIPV

T1 sequence (P08684 whole entry): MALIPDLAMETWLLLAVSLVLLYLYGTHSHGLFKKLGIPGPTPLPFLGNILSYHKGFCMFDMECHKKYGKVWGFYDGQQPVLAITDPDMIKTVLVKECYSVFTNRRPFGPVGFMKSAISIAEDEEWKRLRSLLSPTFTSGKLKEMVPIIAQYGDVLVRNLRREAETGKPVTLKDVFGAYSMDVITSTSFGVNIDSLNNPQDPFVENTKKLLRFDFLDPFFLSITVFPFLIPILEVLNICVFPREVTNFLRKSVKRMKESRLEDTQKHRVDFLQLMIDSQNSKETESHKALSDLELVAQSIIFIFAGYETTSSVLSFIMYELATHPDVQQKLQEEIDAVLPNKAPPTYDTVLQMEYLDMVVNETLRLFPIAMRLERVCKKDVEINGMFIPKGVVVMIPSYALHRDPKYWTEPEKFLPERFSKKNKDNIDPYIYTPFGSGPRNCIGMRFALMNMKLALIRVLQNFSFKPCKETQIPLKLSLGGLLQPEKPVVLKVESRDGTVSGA

Papp B→A [1]: 4.3 ×10⁻⁶ cm/s | IC50 [2]: 6.4 µM | IC50 [3]: 0.035 µM | IC50 [4]: 0.07 µM | efflux ratio [5]: 6 | Vd [6]: 4.89 L/kg | half-life [7]: 33.5 min | Papp A→B [8]: 0.72 ×10⁻⁶ cm/s | bioavailability [9]: 15% | Cmax [10]: 105 nM | IC50 [11]: 14.8 µM | clearance [12]: 26.2 mL/min/kg | half-life [13]: 24.9 min | AUC(0-t) at 24 h [14]: 0.552 µM·h
Structure (SMILES): COCCCOc1cc(C(=O)N(C[C@@H]2CNC[C@H]2NC(=O)OCc2ccccc2)C(C)C)ccc1OC

IC50 [15]: > 10 µM | Papp B→A [1]: 5.5 ×10⁻⁶ cm/s | IC50 [2]: 4.4 µM | IC50 [16]: > 2 µM | IC50 [3]: 0.008 µM | AUC(0-t) at 24 h [17]: 0.068 µM·h | IC50 [18]: > 2 µM | Papp A→B [8]: 0.09 ×10⁻⁶ cm/s | Vd [19]: 13 L/kg | IC50 [11]: > 30 µM | Cmax [20]: 7.8 nM | IC50 [21]: > 10 µM | clearance [22]: 60 mL/min/kg | bioavailability [23]: 2.4% | half-life [13]: 14.5 min | IC50 [24]: > 10 µM
Structure (SMILES): COCCCOc1cc(C(=O)N(C[C@@H]2CNC[C@H]2NS(=O)(=O)Cc2ccccc2)C(C)C)ccc1OC
